# From patent US20170211012A1, “METHOD OF […] FROM MICROBES” (priority 2014, published 2017)
# “And” between values parts separate entries of the source, which are not always exact repeats. Equal values may be shown once.
# Test system: Vibrio cholerae
# Assay: Colistin MIC against Vibrio cholerae strains
# Assay type: cell-based
substance,measurement,setting,value
colistin,Colistin MIC,"V. cholerae strain 32-14, O antigen not given",>250 µg/mL
same,Colistin MIC,"V. cholerae strain 33-36, O antigen O-1",>250 µg/mL
same,Colistin MIC,"V. cholerae strain 35-44, O antigen O-1",>250 µg/mL
same,Colistin MIC,"V. cholerae strain 50-1, O antigen O-1",4 µg/mL and 8 µg/mL
same,Colistin MIC,"V. cholerae strain 51-2, O antigen O-1",4 µg/mL
same,Colistin MIC,"V. cholerae strain 52-4, O antigen O-1",4 µg/mL
same,Colistin MIC,"V. cholerae strain 57-11, O antigen O-139",4 µg/mL
same,Colistin MIC,"V. cholerae strain 58-12, O antigen O-1",125 µg/mL
same,Colistin MIC,"V. cholerae strain 79-35, O antigen O-1",>250 µg/mL
same,Colistin MIC,"V. cholerae strain 114/98931, O antigen O-1",125 µg/mL
same,Colistin MIC,"V. cholerae strain 461/99053, O antigen O-1",>250 µg/mL
same,Colistin MIC,"V. cholerae strain 781, O antigen O-1",>250 µg/mL
same,Colistin MIC,"V. cholerae strain 1837, O antigen O-139",>250 µg/mL
same,Colistin MIC,"V. cholerae strain FMU-089933, O antigen O-139",31.5 µg/mL
same,Colistin MIC,"V. cholerae strain M-702-3, O antigen O-1",>250 µg/mL
same,Colistin MIC,"V. cholerae strain N16117, O antigen O-1",>250 µg/mL
same,Colistin MIC,"V. cholerae strain N16861, O antigen O-1",>250 µg/mL
same,Colistin MIC,"V. cholerae strain NG288/36, O antigen O-139",>250 µg/mL
same,Colistin MIC,"V. cholerae strain NG368/36, O antigen O-139",>250 µg/mL
same,Colistin MIC,"V. cholerae strain NRU-20455, O antigen O-139",8 µg/mL
same,Colistin MIC,"V. cholerae strain NRU-20461, O antigen O-139",8 µg/mL and 4 µg/mL
same,Colistin MIC,"V. cholerae strain O-139 Argentina, O antigen O-139",>250 µg/mL
